In patent US4808517A (priority 1985, dated 1989):

Test system: submitochondrial particles
Format: biochemical

Oc1c(Cl)c(Cl)c(Cl)c(Cl)c1Cl [Pentachlorophenol]
Inhibition of maximum NADH concentration: 39%
